In patent publication US8198273B2, “Compounds and methods for kinase modulation, and indications therefor” (Plexxikon Inc., priority 2009, dated 2012):

What was measured:
[1] = target: B-Raf (Homo sapiens, UniProt P15056); test: B-Raf biochemical kinase inhibition (AlphaScreen, biotin-MEK1 substrate); details: 100 μM ATP
Protocol: Compounds to be tested are diluted in dimethyl sulfoxide to a concentration of 0.1 mM. These are serially diluted 15 μL into 30 μL of dimethyl sulfoxide seven times in 96 well plates for a total of 8 dilution points, and for each dilution point 1 μL is added to a well of an assay plate. […] The reaction is started with addition of 10 μL of 200 μM ATP (i.e. final 100 μM ATP). […] The plates are incubated for 3 hours at room temperature and read on Envision reader (Perkin Elmer). […] The signal vs. compound concentration is used to determine the IC50.

[2] = Relative solubility by turbidity in aqueous buffers of varying pH; format: physicochemical; details: for turbidity threshold (L, M, H) 7.4: HEPES pH 7.4; for turbidity threshold (L, M, H) 4.5: SIF pH 4.5; for turbidity threshold (L, M, H) 6.8: SIF pH 6.8; for turbidity threshold (L, M, H) 1.4: buffer pH 1.4 (SGF)
Protocol: As an indication of relative solubility, the turbidity of compounds in aqueous solutions is assessed. To assess possible compound properties in different physiological compartments, such as stomach, intestine, and blood, a series of aqueous buffers with varying pH is used. Thus each compound is diluted into four different physiologically relevant buffers and solution turbidity is measured by spectrophotometry.
Compounds are dissolved at a concentration of 25 mM in dimethyl sulfoxide, then serially diluted 1:1 into a 96 well plate, diluting 10 times in pure dimethyl sulfoxide, with the final well of each row a dimethyl sulfoxide blank. In an assay plate, 99 μL of appropriate buffer is added to each well, and 1 μL of each sample dilution is added to the buffer, achieving a range of final total concentrations in aqueous solutions having different pH. The buffers used are Simulated Gastric Fluid (SGF-pH 1.5) 0.5M NaCl, pH 1.5; Simulated Intestinal fluid (SIF-pH 4.5 and pH 6.8) 0.05M NaH2PO4, pH 4.5 and 6.8; and Hepes Buffer (HEPES-pH 7.4) 10 mM HEPES, 150 mM NaCl, pH 7.4. Control compounds pyrene, estriol and propranolol HCl are also assessed. Plates are spun and then mixed for 1 minute, and the absorbance is read using a Tecan Safire II to read wavelengths in the visible range (490, 535, and 650 nm) at four locations per well, reflecting the degree of turbidity present. The average optical density for each wavelength in each well is graphed vs. compound concentration, and the concentration at which the curve crosses a threshold O.D. of 0.01 for each wavelength is reported as the endpoint turbidity assay result. The average of the three wavelengths is used to compare turbidity of compounds. Compounds are considered to have low solubility if the threshold concentration is <31.3 04, moderate solubility if the threshold concentration is 31.3 μM to 250 μM, and high solubility if the threshold concentration is >250 μM.

B-Raf, sequence (P15056 whole entry): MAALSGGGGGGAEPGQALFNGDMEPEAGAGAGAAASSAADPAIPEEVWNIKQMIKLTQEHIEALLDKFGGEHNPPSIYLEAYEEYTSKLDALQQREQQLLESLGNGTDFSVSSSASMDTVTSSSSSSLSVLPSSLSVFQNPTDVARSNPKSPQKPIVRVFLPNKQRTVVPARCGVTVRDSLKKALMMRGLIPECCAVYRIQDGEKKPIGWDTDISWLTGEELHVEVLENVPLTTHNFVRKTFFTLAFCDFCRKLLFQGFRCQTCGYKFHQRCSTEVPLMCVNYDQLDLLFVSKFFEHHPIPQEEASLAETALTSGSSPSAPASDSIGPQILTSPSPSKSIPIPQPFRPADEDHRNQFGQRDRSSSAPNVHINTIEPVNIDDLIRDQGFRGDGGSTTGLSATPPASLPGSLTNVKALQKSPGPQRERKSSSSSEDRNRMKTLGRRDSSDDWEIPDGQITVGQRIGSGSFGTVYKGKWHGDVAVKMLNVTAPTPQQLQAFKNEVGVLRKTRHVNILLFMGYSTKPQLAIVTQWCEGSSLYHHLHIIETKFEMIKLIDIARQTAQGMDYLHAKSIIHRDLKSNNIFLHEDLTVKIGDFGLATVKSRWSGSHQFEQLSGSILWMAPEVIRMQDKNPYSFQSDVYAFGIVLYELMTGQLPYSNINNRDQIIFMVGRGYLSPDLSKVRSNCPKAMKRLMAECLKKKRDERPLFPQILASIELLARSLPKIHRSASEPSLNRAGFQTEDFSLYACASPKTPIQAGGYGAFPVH

| SMILES | IC50 [1] [µM] | turbidity threshold (L, M, H) 7.4 [2] | turbidity threshold (L, M, H) 4.5 [2] | turbidity threshold (L, M, H) 6.8 [2] | turbidity threshold (L, M, H) 1.4 [2] |
| --- | --- | --- | --- | --- | --- |
| CCCS(=O)(=O)Nc1ccc(F)c(C(=O)c2c[nH]c3ncc(-c4cnc(OC)nc4OC)cc23)c1F [P-2199, Propane-1-sulfonic acid {3-[5-(2,4-dimethoxy-pyrimidin-5-yl)-1H-pyrrolo[2,3-b]pyridine-3-carbonyl]-2,4-difluoro-phenyl}-amide] | < 0.1 | – | – | – | – |
| CCCS(=O)(=O)Nc1ccc(F)c(C(=O)c2c[nH]c3ncc(-c4cnc(N5CCOCC5)nc4)cc23)c1F [P-2197, Propane-1-sulfonic acid {2,4-difluoro-3-[5-(2-morpholin-4-yl-pyrimidin-5-yl)-1H-pyrrolo[2,3-b]pyridine-3-carbonyl]-phenyl}-amide] | < 0.01 | L (low solubility if the threshold concentration is <31.3 04) | L (low solubility if the threshold concentration is <31.3 04) | L (low solubility if the threshold concentration is <31.3 04) | M (moderate solubility if the threshold concentration is 31.3 μM to 250 μM) |
| N#Cc1ccnc2[nH]cc(C(=O)c3c(F)ccc(NS(=O)(=O)c4ccccc4F)c3F)c12 [P-2020, N-[3-(4-Cyano-1H-pyrrolo[2,3-b]pyridine-3-carbonyl)-2,4-difluoro-phenyl]-2-fluoro-benzenesulfonamide] | < 0.01 | M (moderate solubility if the threshold concentration is 31.3 μM to 250 μM) | M (moderate solubility if the threshold concentration is 31.3 μM to 250 μM) | M (moderate solubility if the threshold concentration is 31.3 μM to 250 μM) | M (moderate solubility if the threshold concentration is 31.3 μM to 250 μM) |
| N#Cc1cnc2[nH]cc(C(=O)c3cccc(NS(=O)(=O)c4c(F)cccc4F)c3F)c2c1 [P-2054, N-[3-(5-Cyano-1H-pyrrolo[2,3-b]pyridine-3-carbonyl)-2-fluoro-phenyl]-2,6-difluoro-benzenesulfonamide] | < 0.1 | – | – | – | – |
| N#Cc1ccnc2[nH]cc(C(=O)c3c(F)ccc(NS(=O)(=O)c4c(F)cccc4F)c3F)c12 [P-2037, N-[3-(4-Cyano-1H-pyrrolo[2,3-b]pyridine-3-carbonyl)-2,4-difluoro-phenyl]-2,6-difluoro-benzenesulfonamide] | < 0.1 | – | – | – | – |
| N#Cc1cnc2[nH]cc(C(=O)c3cccc(NS(=O)(=O)c4ccccc4F)c3F)c2c1 [P-2051, N-[3-(5-Cyano-1H-pyrrolo[2,3-b]pyridine-3-carbonyl)-2-fluoro-phenyl]-2-fluoro-benzenesulfonamide] | < 0.1 | M (moderate solubility if the threshold concentration is 31.3 μM to 250 μM) | M (moderate solubility if the threshold concentration is 31.3 μM to 250 μM) | M (moderate solubility if the threshold concentration is 31.3 μM to 250 μM) | M (moderate solubility if the threshold concentration is 31.3 μM to 250 μM) |
| CCCS(=O)(=O)Nc1ccc(F)c(C(=O)c2c[nH]c3ncc(-c4cccc(S(C)(=O)=O)c4)cc23)c1F [P-2228, Propane-1-sulfonic acid {2,4-difluoro-3-[5-(3-methanesulfonyl-phenyl)-1H-pyrrolo[2,3-b]pyridine-3-carbonyl]-phenyl}-amide] | < 0.01 | – | – | – | – |
| N#Cc1ccnc2[nH]cc(C(=O)c3c(F)ccc(NS(=O)(=O)c4cccnc4)c3F)c12 [P-2077, Pyridine-3-sulfonic acid [3-(4-cyano-1H-pyrrolo[2,3-b]pyridine-3-carbonyl)-2,4-difluoro-phenyl]-amide] | < 0.01 | – | – | – | – |
